Reference: patent US8426202B2, “Cell culture medium” (Cellca GmbH, priority 2005, dated 2013)
“And” between values parts separate entries of the source, which are not always exact repeats. Identical values can stand only once. Like-named read-outs stand apart in the source and are kept apart here.

Key:
[1] = system: CHO cell line that expresses an antibody; assay: Fed-batch experiment with the substances according to the invention (Example 2, Table 2); assay type: cell-based, Chinese hamster; parameters: Viabil.: concentration or dose not given beside the values
Source text: Feed took place at regular intervals.

[2] = system: CHO cell line that expresses an antibody; assay: Batch experiment with the substances according to the invention (Example 1); assay type: cell-based, Chinese hamster; conditions: batch mode, substance 0.5-1 g/l, basal medium glucose 4.7 g/l, glutamine […]
[3] = system: CHO cell line that expresses an antibody; conditions: fed-batch, basal medium 4 mM glutamine, feed with 3 g/l Ala-Gln and 3 g/l Gly-Gln, substance 0.5-1 g/l
Protocol: (§1) A CHO cell line that expresses an antibody was used for the experiments.
The experiments were carried out either in batch mode or in fed-batch mode. When the process was carried out in fed-batch mode, the process was first started in batch mode in the above-mentioned basal medium and cells were cultivated in this manner for 1-4 days. After 1-4 days the cells were supplemented with a feed medium, i.e. the process was switched to fed-batch mode. Feed took place at regular intervals. In fed-batch experiments, a protein-free and serum-free feed medium from the company HyQ (R05.2 supplement, Cat. No.: SH30584.04, Lot No.: APF21457G) was used.
From the stock solutions, the substances were put at the desired final concentration in culture tubes. The various culture tubes prepared in this way were finally inoculated with the antibody-producing CHO-clone at a target inoculation cell concentration (1-3×10^5/ml). For this, the corresponding amount of inoculum cells was calculated and the required amount of inoculum cell suspension was centrifuged. […] In this way the desired inoculation cell concentration was adjusted in the cell suspension being investigated. The cell suspension thus prepared was proportioned in the culture tubes, which were provided with the substances according to the invention beforehand. The culture tubes were incubated at 37° C., and 8% CO2 atmosphere, with shaking. The culture tubes were cultivated for 8-11 days in the batch mode or in the fed-batch mode. Samples for offline measurement of the variables were taken from the culture vessels at regular intervals, for example daily or on every third day. The metabolic variables and cell concentrations of the samples were measured. Cell concentration and cell vitality were measured with a CeDex instrument. The metabolic variables (glucose, lactate, glutamine and ammonium) were determined with an analyzer (BioProfile 100).
(§2) The following final concentrations of the substances according to the invention were established in a nutrient medium after inoculation:
The substances according to the invention were tested under fed-batch conditions. […] The feed medium used was from the company HyQ (R05.2 supplement, Cat. No.: SH30584.04, Lot No.: APF21457G). 3 g/l alanyl-glutamine (Ala-Gin) and 3 g/l glycyl-glutamine (Gly-Gln) were added to the feed medium.

[4] = system: CHO cell line that expresses an antibody; conditions: fed-batch, glutamine-free basal and feed media, substance 0.5-1 g/l
Source text: as §1
This is a serum-free, protein-free nutrient medium. It is a ready-made, sterile-filtered nutrient medium.
After 1-4 days the cells were supplemented with a feed medium, i.e. the process was switched to fed-batch mode. Feed took place at regular intervals. In fed-batch experiments, a protein-free and serum-free feed medium from the company HyQ (R05.2 supplement, Cat. No.: SH30584.04, Lot No.: APF21457G) was used.
All substances (chemicals) used according to the invention were obtained from the company Sigma and stock solutions were prepared from them. From the stock solutions, the substances were put at the desired final concentration in culture tubes. The various culture tubes prepared in this way were finally inoculated with the antibody-producing CHO-clone at a target inoculation cell concentration (1-3×10^5/ml). For this, the corresponding amount of inoculum cells was calculated and the required amount of inoculum cell suspension was centrifuged. […] In this way the desired inoculation cell concentration was adjusted in the cell suspension being investigated. The cell suspension thus prepared was proportioned in the culture tubes, which were provided with the substances according to the invention beforehand. The culture tubes were incubated at 37° C., and 8% CO2 atmosphere, with shaking. The culture tubes were cultivated for 8-11 days in the batch mode or in the fed-batch mode. Samples for offline measurement of the variables were taken from the culture vessels at regular intervals, for example daily or on every third day. The metabolic variables and cell concentrations of the samples were measured. Cell concentration and cell vitality were measured with a CeDex instrument. The metabolic variables (glucose, lactate, glutamine and ammonium) were determined with an analyzer (BioProfile 100).
as §2
The substances according to the invention were tested under fed-batch conditions. […] The feed medium used was from the company HyQ (R05.2 supplement, Cat. No.: SH30584.04, Lot No.: APF21457G). The feed medium was glutamine-free (Table 4).

Structure (SMILES): O=C(O)C(O)C(O)C(=O)O (centres unmarked) [Tartaric acid]
- Total Cell Density TCD ([1]; day 0, fed-batch): 1.5 E5/ml
- Viabil. ([1]; day 0, fed-batch): 91%
- Viable Cell Density (VCD) ([1]; day 0, fed-batch): 1.37 E5/ml
- Total Cell Density TCD ([1]; day 2, fed-batch): 4 E5/ml and 3.9 E5/ml
- Viabil. ([1]; day 2, fed-batch): 98% and 97%
- Viable Cell Density (VCD) ([1]; day 2, fed-batch): 3.9 E5/ml and 3.8 E5/ml
- Total Cell Density TCD ([1]; day 5, fed-batch): 10.4 E5/ml and 9.6 E5/ml
- Viabil. ([1]; day 5, fed-batch): 93% and 95%
- Viable Cell Density (VCD) ([1]; day 5, fed-batch): 9.7 E5/ml and 9.1 E5/ml
- Total Cell Density TCD ([1]; day 8, fed-batch): 26.6 E5/ml and 27.7 E5/ml
- Viabil. ([1]; day 8, fed-batch): 89% and 90%
- Viable Cell Density (VCD) ([1]; day 8, fed-batch): 23.7 E5/ml and 25 E5/ml
- Gln ([2]; day 0): 1.53 mM
- Glucose ([2]; day 0): 4.69 g/L
- Lactate ([2]; day 0): 0 g/L
- NH4 ([2]; day 0): 1.22 mM
- Specific Glutamin consumption (Gln/VCD) ([2]; day 0): 1.49
- Specific ammonia production (NH4/VCD) ([2]; day 0): 1.18
- Specific glucose consumption (Gluc/VCD) ([2]; day 0): 4.55
- Specific lactate production (Lac/VCD) ([2]; day 0): 0.00
- Total Cell Density TCD ([2]; day 0): 1.07 E5/ml
- Viabil. ([2]; day 0): 96%
- Viable Cell Density (VCD) ([2]; day 0): 1.03 E5/ml
- Gln ([2]; day 3): 0.9 mM
- Glucose ([2]; day 3): 4.53 g/L
- Lactate ([2]; day 3): 0.41 g/L
- NH4 ([2]; day 3): 1.84 mM
- Specific Glutamin consumption (Gln/VCD) ([2]; day 3): 0.17
- Specific ammonia production (NH4/VCD) ([2]; day 3): 0.34
- Specific glucose consumption (Gluc/VCD) ([2]; day 3): 0.84
- Specific lactate production (Lac/VCD) ([2]; day 3): 0.08
- Total Cell Density TCD ([2]; day 3): 5.5 E5/ml
- Viabil. ([2]; day 3): 98%
- Viable Cell Density (VCD) ([2]; day 3): 5.4 E5/ml
- Gln ([2]; day 6): 0.19 mM
- Glucose ([2]; day 6): 3.56 g/L
- Lactate ([2]; day 6): 0.6 g/L
- NH4 ([2]; day 6): 2.89 mM
- Specific Glutamin consumption (Gln/VCD) ([2]; day 6): 0.00
- Specific ammonia production (NH4/VCD) ([2]; day 6): 0.07
- Specific glucose consumption (Gluc/VCD) ([2]; day 6): 0.09
- Specific lactate production (Lac/VCD) ([2]; day 6): 0.02
- Total Cell Density TCD ([2]; day 6): 41.3 E5/ml
- Viabil. ([2]; day 6): 97%
- Viable Cell Density (VCD) ([2]; day 6): 40 E5/ml
- Gln ([2]; day 8): 0.27 mM
- Glucose ([2]; day 8): 2.65 g/L
- Lactate ([2]; day 8): 0.64 g/L
- NH4 ([2]; day 8): 3.42 mM
- Specific Glutamin consumption (Gln/VCD) ([2]; day 8): 0.03
- Specific ammonia production (NH4/VCD) ([2]; day 8): 0.33
- Specific glucose consumption (Gluc/VCD) ([2]; day 8): 0.25
- Specific lactate production (Lac/VCD) ([2]; day 8): 0.06
- Total Cell Density TCD ([2]; day 8): 12.1 E5/ml
- Viabil. ([2]; day 8): 87%
- Viable Cell Density (VCD) ([2]; day 8): 10.5 E5/ml
- Gln ([2]; day 11): 0.42 mM
- Glucose ([2]; day 11): 1.71 g/L
- Lactate ([2]; day 11): 0.79 g/L
- NH4 ([2]; day 11): 3.87 mM
- Specific Glutamin consumption (Gln/VCD) ([2]; day 11): 0.05
- Specific ammonia production (NH4/VCD) ([2]; day 11): 0.44
- Specific glucose consumption (Gluc/VCD) ([2]; day 11): 0.20
- Specific lactate production (Lac/VCD) ([2]; day 11): 0.09
- Total Cell Density TCD ([2]; day 11): 18 E5/ml
- Viabil. ([2]; day 11): 48%
- Viable Cell Density (VCD) ([2]; day 11): 8.7 E5/ml

Structure (SMILES): O=C(O)CCC(=O)C(=O)O [α-Keto-glutarate]
- Viabil. ([3]; day 0): 96%
- Viabil. ([3]; day 3): 93%
- Viabil. ([3]; day 5): 96%
- Viabil. ([3]; day 7): 84%
- Viabil. ([3]; day 9): 67%
- Viabil. ([1]; day 0, fed-batch): 91%
- Viabil. ([1]; day 2, fed-batch): 97%
- Viabil. ([1]; day 5, fed-batch): 97%
- Viabil. ([1]; day 8, fed-batch): 95%
- Sp. Gluc cons. ([4]; day 0): 94
- Sp. NH4 prod ([4]; day 0): 100 % of control
- TCD ([4]; day 0): 100 % of control
- VCD ([4]; day 0): 100 % of control
- Viabil. ([4]; day 0): 94%
- Sp. Gluc cons. ([4]; day 3): 98
- Sp. Lactate prod. ([4]; day 3): 70 % of control
- Sp. NH4 prod ([4]; day 3): 94 % of control
- TCD ([4]; day 3): 94 % of control
- VCD ([4]; day 3): 103 % of control
- Viabil. ([4]; day 3): 96%
- Sp. Gluc cons. ([4]; day 5): 98
- Sp. Lactate prod. ([4]; day 5): 72 % of control
- Sp. NH4 prod ([4]; day 5): 94 % of control
- TCD ([4]; day 5): 103 % of control
- Viabil. ([4]; day 5): 93%
- Sp. Gluc cons. ([4]; day 7): 95
- Sp. Lactate prod. ([4]; day 7): 72 % of control
- Sp. NH4 prod ([4]; day 7): 95 % of control
- TCD ([4]; day 7): 96 % of control
- VCD ([4]; day 7): 99 % of control
- Viabil. ([4]; day 7): 90%
- Sp. Gluc cons. ([4]; day 9): 109
- Sp. Lactate prod. ([4]; day 9): 79 % of control
- Sp. NH4 prod ([4]; day 9): 103 % of control
- TCD ([4]; day 9): 92 % of control
- VCD ([4]; day 9): 92 % of control
- Viabil. ([4]; day 9): 93%
